Patent US20240246964A1 (Arbutus Biopharma Corporation, priority 2021, published 2024)

How the values were obtained:
[1] = molecular target: PD-L1 His protein / PD-1 Fc protein (Homo sapiens (Human), UniProt Q9NZQ7); test: HTRF Assay (PD-1/PD-L1 interaction); format: binding; details: PD-L1 His 6 nM, PD-1 Fc 6 nM
human PD-L1 = human PD-L1 (Homo sapiens (Human), UniProt Q9NZQ7); test: T cell activation luciferase reporter cell culture system (T Cell Activation Assay); format: cell-based; details: luciferase reporter assay; PD-L1 aAPC/CHO-K1 cells with PD-1 effector Jurkat T cells
Chain of human PD-L1 (Q9NZQ7 19-290): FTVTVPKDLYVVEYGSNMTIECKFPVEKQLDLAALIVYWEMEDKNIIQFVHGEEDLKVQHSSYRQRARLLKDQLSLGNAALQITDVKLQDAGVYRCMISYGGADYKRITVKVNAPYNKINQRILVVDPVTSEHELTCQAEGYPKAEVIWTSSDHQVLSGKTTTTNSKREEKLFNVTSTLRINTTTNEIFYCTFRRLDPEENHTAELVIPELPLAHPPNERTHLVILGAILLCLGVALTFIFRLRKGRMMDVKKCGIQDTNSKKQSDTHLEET

Chain of PD-L1 His protein / PD-1 Fc protein (Q9NZQ7 19-238): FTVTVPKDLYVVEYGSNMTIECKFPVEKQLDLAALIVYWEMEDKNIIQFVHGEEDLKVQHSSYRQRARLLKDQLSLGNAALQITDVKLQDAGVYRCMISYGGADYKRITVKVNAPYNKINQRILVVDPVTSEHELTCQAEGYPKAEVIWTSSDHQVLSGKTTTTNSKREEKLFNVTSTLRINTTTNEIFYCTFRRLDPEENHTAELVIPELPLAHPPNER

Row | Structure (SMILES) | IC50 [1] [nM] | EC50 (human PD-L1) [nM]
1 | COc1nc(-c2cccc(-c3ccnc(-c4ccc(CN5CC6(C5)CN(C(C)=O)C6)c(OC(F)F)c4)c3Cl)c2Cl)ccc1CN1CC2(CNC(=O)C2)C1 [Example 662, 2-((6-(3-(2-(4-((6-Acetyl-2,6-diazaspiro[3.3]heptan-2-yl)methyl)-3-(difluoromethoxy)phenyl)-3-chloropyridin-4-yl)-2-chlorophenyl)-2-methoxypyridin-3-yl)methyl)-2,6-diazaspiro[3.4]octan-7-one] | 0.74 | 18.5
2 | COc1cc(-c2nccc(-c3cccc(-c4ccc(CNC5CCN(C(C)=O)CC5)c(OC)n4)c3Cl)c2Cl)ccc1CN1CCOCC1 [Example 458, 1-(4-(((6-(2-Chloro-3-(3-chloro-2-(3-methoxy-4-(morpholinomethyl)phenyl)pyridin-4-yl)phenyl)-2-methoxypyridin-3-yl)methyl)amino)piperidin-1-yl)ethan-1-one] | 24.6 | 82.6
3 | COc1cc(-c2nccc(-c3cccc(-c4ccc(CNC[C@@H]5CCC(=O)N5)c(OC)n4)c3Cl)c2Cl)cc(C)c1CNC[C@@H]1CCC(=O)N1 [Compound 115, (S)-5-((((6-(2-chloro-3-(3-chloro-2-(3-methoxy-5-methyl-4-(((((S)-5-oxopyrrolidin-2-yl)methyl)amino)methyl)phenyl)pyridin-4-yl)phenyl)-2-methoxypyridin-3-yl)methyl)amino)methyl)pyrrolidin-2-one] | 1.1 | 36.3
4 | COc1nc(-c2cccc(-c3ccnc(-c4cc5c(=O)n(C)c(CN6CC7(CC(O)C7)C6)nn5c4)c3Cl)c2Cl)ccc1CNC[C@@H]1CCC(=O)N1 [Compound 48, (S)-6-(3-chloro-4-(2-chloro-3-(6-methoxy-5-((((5-oxopyrrolidin-2-yl)methyl)amino)methyl)pyridin-2-yl)phenyl)pyridin-2-yl)-2-((6-hydroxy-2-azaspiro[3.3]heptan-2-yl)methyl)-3-methylpyrrolo[2,1-f][1,2,4]triazin-4(3H)-one] | 0.04 | 18.7
5 | COc1cc(-c2nccc(-c3cccc(-c4ccc5c(CNCCO)cn(C)c5n4)c3Cl)c2Cl)ccc1CNC[C@@H]1CCC(=O)N1 [Compound 97, (S)-5-(((4-(3-chloro-4-(2-chloro-3-(3-(((2-hydroxyethyl)amino)methyl)-1-methyl-1H-pyrrolo[2,3-b]pyridin-6-yl)phenyl)pyridin-2-yl)-2-methoxybenzyl)amino)methyl)pyrrolidin-2-one] | 0.5 | 28.3
6 | COc1cc(-c2nccc(-c3cccc(-c4cnc(CNC5CCN(C(C)=O)CC5)c(OC)c4)c3Cl)c2Cl)ccc1CNC1CCN(C(C)=O)CC1 [Example 565, 1-(4-(((5-(3-(2-(4-(((1-acetylpiperidin-4-yl)amino)methyl)-3-methoxyphenyl)-3-chloropyridin-4-yl)-2-chlorophenyl)-3-methoxypyridin-2-yl)methyl)amino)piperidin-1-yl)ethan-1-one] | 1.72 | 1040
7 | COc1cc(-c2nccc(-c3cccc(-c4ccc(CNC5CCN(C(C)=O)CC5)c(OC)n4)c3Cl)c2Cl)ccc1CNCC(F)F [Example 513, 1-(4-(((6-(2-Chloro-3-(3-chloro-2-(4-(((2,2-difluoroethyl)amino)methyl)-3-methoxyphenyl)pyridin-4-yl)phenyl)-2-methoxypyridin-3-yl)methyl)amino)piperidin-1-yl)ethan-1-one] | 47.1 | 685
8 | COc1nc(-c2cccc(-c3ccnc(-c4ccc(CN5CC6(CNC(=O)C6)C5)c(OC(F)F)c4)c3Cl)c2Cl)ccc1CN1CC2(C1)CN(C(C)=O)C2 [Example 688, 2-(4-(4-(3-(5-((6-Acetyl-2,6-diazaspiro[3.3]heptan-2-yl)methyl)-6-methoxypyridin-2-yl)-2-chlorophenyl)-3-chloropyridin-2-yl)-2-(difluoromethoxy)benzyl)-2,6-diazaspiro[3.4]octan-7-one] | 1.46 | 17
9 | CNCc1ccc(-c2cccc(-c3ccnc(-c4ccc(CNC(C)C)c(OC)c4)c3Cl)c2Cl)nc1OC [Compound 211, N-(4-(3-chloro-4-(2-chloro-3-(6-methoxy-5-((methylamino)methyl)pyridin-2-yl)phenyl)pyridin-2-yl)-2-methoxybenzyl)propan-2-amine] | 4.2 | 56.2
10 | COc1cc(-c2nccc(-c3ccnc(-c4ccc(CNC[C@@H]5CCC(=O)N5)c(OC)c4)c3Cl)c2Cl)ccc1CNC[C@@H]1CCC(=O)N1 [Compound 4, (5S,5′S)-5,5′-(((((3,3′-dichloro-[4,4′-bipyridine]-2,2′-diyl)bis(2-methoxy-4,1-phenylene))bis(methylene))bis(azanediyl))bis(methylene))bis(pyrrolidin-2-one)] | 8.3 | 96.3
11 | COc1cc(-c2nccc(-c3cccc(-c4ccc(CN5CC6(CNC(=O)C6)C5)c(OC)n4)c3Cl)c2Cl)cc(F)c1CN1CC2(CNC(=O)C2)C1 [Example 287, 2-((6-(2-Chloro-3-(3-chloro-2-(3-fluoro-5-methoxy-4-((7-oxo-2,6-diazaspiro[3.4]octan-2-yl)methyl)phenyl)pyridin-4-yl)phenyl)-2-methoxypyridin-3-yl)methyl)-2,6-diazaspiro[3.4]octan-7-one] | 4.67 | 16.4
12 | COc1nc(-c2ccnc(-c3cccc4c3CC[C@@H]4Oc3nc(OC)c(CNC4CCOCC4)cc3C(F)(F)F)c2Cl)ccc1CN1CC2(CNC(=O)C2)C1 [Example 552, (S)-2-((3′-Chloro-6-methoxy-2′-(1-((6-methoxy-5-(((tetrahydro-2H-pyran-4-yl)amino)methyl)-3-(trifluoromethyl)pyridin-2-yl)oxy)-2,3-dihydro-1H-inden-4-yl)-[2,4′-bipyridin]-5-yl)methyl)-2,6-diazaspiro[3.4]octan-7-one] | 0.25 | 144
13 | COc1cc(-c2nccc(-c3cccc(-c4ccc(CNC5CCN(C(=O)c6ccco6)CC5)c(OC)n4)c3Cl)c2Cl)ccc1CNC1CCN(C(=O)c2ccco2)CC1 [Example 421, (4-(((6-(2-Chloro-3-(3-chloro-2-(4-(((1-(furan-2-carbonyl)piperidin-4-yl)amino)methyl)-3-methoxyphenyl)pyridin-4-yl)phenyl)-2-methoxypyridin-3-yl)methyl)amino)piperidin-1-yl)(furan-2-yl)methanone] | 1.86 | 47.7
14 | COc1nc(-c2cccc(-c3ccnc(-c4ccc5c(CNC6CCC(F)(F)CC6)cn(C)c5c4)c3Cl)c2Cl)ccc1CNC[C@@H]1CCC(=O)N1 [Compound 73, (S)-5-((((6-(2-chloro-3-(3-chloro-2-(3-(((4,4-difluorocyclohexyl)amino)methyl)-1-methyl-1H-indol-6-yl)pyridin-4-yl)phenyl)-2-methoxypyridin-3-yl)methyl)amino)methyl)pyrrolidin-2-one] | 0.9 | 184
15 | COc1cc(-c2nccc(-c3cccc(-c4ccc(C5=NCCN5)c(OC)n4)c3Cl)c2Cl)ccc1C1=NCCN1 [Compound 106, 3-chloro-4-(2-chloro-3-(5-(4,5-dihydro-1H-imidazol-2-yl)-6-methoxypyridin-2-yl)phenyl)-2-(4-(4,5-dihydro-1H-imidazol-2-yl)-3-methoxyphenyl)pyridine] | 1.4 | 123
16 | COc1cc(-c2nccc(-c3cccc(-c4ccc(CN5CC6(COC6)C5)c(OC)n4)c3C(F)(F)F)c2Cl)ccc1CN1CC2(COC2)C1 [Example 578, 6-(4-(4-(3-(5-((2-Oxa-6-azaspiro[3.3]heptan-6-yl)methyl)-6-methoxypyridin-2-yl)-2-(trifluoromethyl)phenyl)-3-chloropyridin-2-yl)-2-methoxybenzyl)-2-oxa-6-azaspiro[3.3]heptane] | 70.3 | ≥ 10000
17 | COc1nc(-c2cccc(-c3cncc(-c4ccc(CN5CC6(CNC(=O)C6)C5)c(OC)n4)c3Cl)c2Cl)ccc1CN1CC2(CNC(=O)C2)C1 [Compound 640, 2-((4′-Chloro-5′-(2-chloro-3-(6-methoxy-5-((7-oxo-2,6-diazaspiro[3.4]octan-2-yl)methyl)pyridin-2-yl)phenyl)-6-methoxy-[2,3′-bipyridin]-5-yl)methyl)-2,6-diazaspiro[3.4]octan-7-one] | 0.22 | 26.2
18 | COc1nc(-c2ccnc(-c3cccc(NC(=O)c4cn(C)c(=O)n(C)c4=O)c3Cl)c2Cl)ccc1CNC[C@H](C)O [Compound 745, (S)—N-(2-Chloro-3-(3′-chloro-5-(((2-hydroxypropyl)amino)methyl)-6-methoxy-[2,4′-bipyridin]-2′-yl)phenyl)-1,3-dimethyl-2,4-dioxo-1,2,3,4-tetrahydropyrimidine-5-carboxamide] | 0.31 | 372
19 | COc1nc(-c2ccnc(-c3cccc4c3CC[C@@H]4Oc3nc(OC)c(CNC4(C(=O)O)CC4)cc3C(F)(F)F)c2Cl)ccc1CNC[C@@H]1CCC(=O)N1 [Compound 129, 1-(((6-(((S)-4-(3′-chloro-6-methoxy-5-(((((S)-5-oxopyrrolidin-2-yl)methyl)amino)methyl)-[2,4′-bipyridin]-2′-yl)-2,3-dihydro-1H-inden-1-yl)oxy)-2-methoxy-5-(trifluoromethyl)pyridin-3-yl)methyl)amino)cyclopropane-1-carboxylic acid] | 0.305 | 16.4
20 | CNCc1ccc(-c2cccc(-c3ccnc(-c4ccc(CN5CC[C@H](C(=O)OC(C)C)C5)c(OC)c4)c3Cl)c2Cl)nc1OC [Example 278, Isopropyl (S)-1-(4-(3-chloro-4-(2-chloro-3-(6-methoxy-5-((methylamino)methyl)pyridin-2-yl)phenyl)pyridin-2-yl)-2-methoxybenzyl)pyrrolidine-3-carboxylate] | 404 | 258
21 | COc1nc(-c2cccc(-c3ccnc(-c4ccc5c(c4)CNC5)c3Cl)c2Cl)ccc1CNC1CCN(C(C)=O)CC1 [Compound 162, 1-(4-(((6-(2-chloro-3-(3-chloro-2-(isoindolin-5-yl)pyridine-4-yl)phenyl)-2-methoxypyridin-3-yl)methyl)amino)piperidin-1-yl)ethan-1-one] | 0.78 | 5160
